Columns and labels:
[1] = biological target: T1, Alpha-1A adrenergic receptor (Homo sapiens, UniProt P35348); assay type: functional, cell-based
T1 sequence (P35348 whole entry): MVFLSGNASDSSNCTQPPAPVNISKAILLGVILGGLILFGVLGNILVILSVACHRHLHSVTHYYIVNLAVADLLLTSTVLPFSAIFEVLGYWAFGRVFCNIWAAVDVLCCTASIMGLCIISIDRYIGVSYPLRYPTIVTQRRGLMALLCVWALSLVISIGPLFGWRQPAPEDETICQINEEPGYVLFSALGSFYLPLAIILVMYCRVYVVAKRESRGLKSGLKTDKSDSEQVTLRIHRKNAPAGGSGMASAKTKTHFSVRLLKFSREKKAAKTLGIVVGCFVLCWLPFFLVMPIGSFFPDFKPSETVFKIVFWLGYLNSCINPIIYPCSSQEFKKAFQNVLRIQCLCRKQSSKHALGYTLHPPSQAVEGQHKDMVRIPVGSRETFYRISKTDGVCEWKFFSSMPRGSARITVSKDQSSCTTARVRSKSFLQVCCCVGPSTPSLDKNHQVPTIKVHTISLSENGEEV

[2] = biological target: T2, Adenosine receptor A1 (Homo sapiens, UniProt P30542)
T2 sequence (P30542 whole entry): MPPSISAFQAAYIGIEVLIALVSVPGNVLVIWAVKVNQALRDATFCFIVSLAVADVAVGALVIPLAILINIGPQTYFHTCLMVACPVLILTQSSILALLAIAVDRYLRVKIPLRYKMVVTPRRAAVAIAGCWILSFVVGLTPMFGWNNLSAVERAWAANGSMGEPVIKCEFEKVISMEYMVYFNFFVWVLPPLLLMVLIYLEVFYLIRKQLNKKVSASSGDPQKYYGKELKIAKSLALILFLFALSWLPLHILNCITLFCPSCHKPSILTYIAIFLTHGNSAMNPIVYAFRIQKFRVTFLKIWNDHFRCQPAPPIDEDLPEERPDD

[3] = biological target: T1, Alpha-1A adrenergic receptor; assay type: functional, cell-based; remark: listed apart in the source
[4] = biological target: T1, Alpha-1A adrenergic receptor; assay type: functional, cell-based; remark: listed apart in the source
[5] = biological target: D(3) dopamine receptor (Homo sapiens, UniProt P35462)
[6] = biological target: Growth hormone secretagogue receptor type 1 (Homo sapiens, UniProt Q92847)
[7] = biological target: Histamine H3 receptor (Homo sapiens, UniProt Q9Y5N1)
[8] = biological target: T3, Muscarinic acetylcholine receptor M2 (Homo sapiens, UniProt P08172); assay type: functional, cell-based
T3 sequence (P08172 whole entry): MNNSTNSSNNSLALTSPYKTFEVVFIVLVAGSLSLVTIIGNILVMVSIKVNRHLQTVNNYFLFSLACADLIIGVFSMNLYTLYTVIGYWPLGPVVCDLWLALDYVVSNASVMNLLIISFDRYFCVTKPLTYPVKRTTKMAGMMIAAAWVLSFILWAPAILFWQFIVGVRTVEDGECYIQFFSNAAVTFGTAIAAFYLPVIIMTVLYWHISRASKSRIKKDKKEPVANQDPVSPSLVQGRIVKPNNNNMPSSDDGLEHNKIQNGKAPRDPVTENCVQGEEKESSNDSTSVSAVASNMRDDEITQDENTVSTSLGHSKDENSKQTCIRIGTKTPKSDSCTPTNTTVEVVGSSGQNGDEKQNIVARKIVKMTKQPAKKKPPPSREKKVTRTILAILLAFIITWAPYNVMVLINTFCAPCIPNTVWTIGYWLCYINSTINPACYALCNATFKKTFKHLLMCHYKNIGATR

[9] = biological target: Motilin receptor (Homo sapiens, UniProt O43193)
[10] = biological target: T4, Glucocorticoid receptor (Homo sapiens, UniProt P04150)
T4 sequence (P04150 whole entry): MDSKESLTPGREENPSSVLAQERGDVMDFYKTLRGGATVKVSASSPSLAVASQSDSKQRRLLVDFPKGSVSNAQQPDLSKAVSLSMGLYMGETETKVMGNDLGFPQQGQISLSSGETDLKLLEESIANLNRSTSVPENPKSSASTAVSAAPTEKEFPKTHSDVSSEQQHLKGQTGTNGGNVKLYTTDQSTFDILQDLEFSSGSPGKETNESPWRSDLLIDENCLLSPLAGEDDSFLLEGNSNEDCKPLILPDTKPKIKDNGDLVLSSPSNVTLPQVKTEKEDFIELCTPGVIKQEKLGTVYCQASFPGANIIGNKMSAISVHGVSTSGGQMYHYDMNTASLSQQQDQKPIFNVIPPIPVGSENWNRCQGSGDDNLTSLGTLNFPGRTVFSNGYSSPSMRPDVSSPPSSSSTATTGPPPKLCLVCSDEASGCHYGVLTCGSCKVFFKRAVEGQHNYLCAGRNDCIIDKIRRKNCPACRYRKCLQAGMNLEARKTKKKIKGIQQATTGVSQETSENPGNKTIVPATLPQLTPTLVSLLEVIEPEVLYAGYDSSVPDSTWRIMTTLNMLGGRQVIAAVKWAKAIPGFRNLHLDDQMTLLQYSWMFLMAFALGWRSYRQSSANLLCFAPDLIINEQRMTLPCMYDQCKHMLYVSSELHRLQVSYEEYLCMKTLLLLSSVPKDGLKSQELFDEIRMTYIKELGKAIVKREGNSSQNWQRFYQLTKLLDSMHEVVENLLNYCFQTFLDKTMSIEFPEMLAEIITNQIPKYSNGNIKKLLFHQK

[11] = biological target: Vasopressin V2 receptor (Homo sapiens, UniProt P30518)
[12] = biological target: T5, Thromboxane A2 receptor (Homo sapiens, UniProt P21731)
T5 sequence (P21731 whole entry): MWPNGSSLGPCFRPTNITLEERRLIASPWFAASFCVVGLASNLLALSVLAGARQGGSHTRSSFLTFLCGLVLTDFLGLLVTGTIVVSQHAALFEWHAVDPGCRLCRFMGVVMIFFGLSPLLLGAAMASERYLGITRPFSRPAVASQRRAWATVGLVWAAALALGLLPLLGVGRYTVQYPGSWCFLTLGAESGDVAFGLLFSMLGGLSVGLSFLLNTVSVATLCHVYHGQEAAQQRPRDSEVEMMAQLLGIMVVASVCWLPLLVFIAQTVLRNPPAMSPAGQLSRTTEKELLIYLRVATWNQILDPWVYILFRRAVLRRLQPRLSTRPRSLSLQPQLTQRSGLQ
Also: assay procedure not described here.

Sequence of Motilin receptor (O43193 whole entry): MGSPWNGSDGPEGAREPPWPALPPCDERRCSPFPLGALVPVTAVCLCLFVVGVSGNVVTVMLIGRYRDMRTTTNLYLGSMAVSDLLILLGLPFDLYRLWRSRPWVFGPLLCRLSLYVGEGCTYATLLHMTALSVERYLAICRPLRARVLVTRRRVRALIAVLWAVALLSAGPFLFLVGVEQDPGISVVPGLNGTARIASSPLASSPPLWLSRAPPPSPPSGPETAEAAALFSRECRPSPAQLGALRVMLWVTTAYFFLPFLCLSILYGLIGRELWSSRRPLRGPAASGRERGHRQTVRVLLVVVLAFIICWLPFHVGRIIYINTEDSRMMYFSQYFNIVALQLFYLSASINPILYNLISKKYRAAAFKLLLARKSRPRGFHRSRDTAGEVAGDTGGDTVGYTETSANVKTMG
Sequence of Histamine H3 receptor (Q9Y5N1 whole entry): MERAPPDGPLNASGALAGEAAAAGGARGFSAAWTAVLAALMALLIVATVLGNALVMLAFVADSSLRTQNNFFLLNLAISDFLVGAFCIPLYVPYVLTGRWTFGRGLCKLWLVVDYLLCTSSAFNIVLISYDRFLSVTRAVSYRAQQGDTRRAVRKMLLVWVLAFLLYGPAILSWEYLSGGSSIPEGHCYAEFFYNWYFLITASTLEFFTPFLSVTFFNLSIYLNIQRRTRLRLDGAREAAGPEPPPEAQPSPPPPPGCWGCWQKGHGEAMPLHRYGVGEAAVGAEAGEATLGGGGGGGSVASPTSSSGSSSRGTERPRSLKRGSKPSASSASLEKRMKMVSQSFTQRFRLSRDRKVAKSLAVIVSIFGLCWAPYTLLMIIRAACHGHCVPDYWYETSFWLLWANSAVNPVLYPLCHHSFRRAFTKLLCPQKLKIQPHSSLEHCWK
Sequence of Vasopressin V2 receptor (P30518 whole entry): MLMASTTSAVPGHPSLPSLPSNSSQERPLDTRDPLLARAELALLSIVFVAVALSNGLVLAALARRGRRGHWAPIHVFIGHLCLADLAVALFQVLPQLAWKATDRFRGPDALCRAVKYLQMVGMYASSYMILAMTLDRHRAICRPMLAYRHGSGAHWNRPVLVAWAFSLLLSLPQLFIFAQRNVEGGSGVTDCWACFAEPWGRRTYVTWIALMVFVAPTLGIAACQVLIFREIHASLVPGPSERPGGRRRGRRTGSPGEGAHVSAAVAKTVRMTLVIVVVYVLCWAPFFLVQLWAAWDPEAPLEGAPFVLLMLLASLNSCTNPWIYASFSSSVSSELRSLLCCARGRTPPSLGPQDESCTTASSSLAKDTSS
Sequence of Growth hormone secretagogue receptor type 1 (Q92847 whole entry): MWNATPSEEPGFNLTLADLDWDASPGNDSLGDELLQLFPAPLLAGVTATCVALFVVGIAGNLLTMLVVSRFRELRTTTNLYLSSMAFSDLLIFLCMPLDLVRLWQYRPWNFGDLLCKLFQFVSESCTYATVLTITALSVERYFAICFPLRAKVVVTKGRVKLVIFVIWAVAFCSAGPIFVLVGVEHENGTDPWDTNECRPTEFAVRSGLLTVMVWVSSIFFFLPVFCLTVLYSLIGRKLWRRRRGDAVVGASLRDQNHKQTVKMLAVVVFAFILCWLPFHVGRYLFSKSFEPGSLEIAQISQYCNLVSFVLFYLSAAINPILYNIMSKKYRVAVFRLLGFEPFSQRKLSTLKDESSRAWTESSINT
Sequence of D(3) dopamine receptor (P35462 whole entry): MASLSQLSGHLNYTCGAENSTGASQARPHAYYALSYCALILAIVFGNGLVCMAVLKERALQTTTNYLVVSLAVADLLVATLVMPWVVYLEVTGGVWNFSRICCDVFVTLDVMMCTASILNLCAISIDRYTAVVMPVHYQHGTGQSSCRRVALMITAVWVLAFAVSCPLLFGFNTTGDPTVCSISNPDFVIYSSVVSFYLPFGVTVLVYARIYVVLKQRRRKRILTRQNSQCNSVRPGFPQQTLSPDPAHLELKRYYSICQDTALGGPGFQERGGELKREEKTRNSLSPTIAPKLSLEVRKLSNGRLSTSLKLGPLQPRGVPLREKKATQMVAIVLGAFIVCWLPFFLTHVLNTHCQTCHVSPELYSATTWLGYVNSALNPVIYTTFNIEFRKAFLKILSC

Compound | AC50 [1] | AC50 [2] | AC50 [3] | AC50 [4] | AC50 [5] | AC50 [6] | AC50 [7] | AC50 [8] | AC50 [9] | AC50 [10] | AC50 [11] | AC50 [12]
C#Cc1cccc(Nc2ncnc3cc(OCCOC)c(OCCOC)cc23)c1 [ERLOTINIB] | > 30 µM | > 30 µM | > 30 µM | > 30 µM | > 30 µM | > 30 µM | > 30 µM | > 30 µM | > 30 µM |  |  | 
CC(=O)/N=c1/sc(S(N)(=O)=O)nn1C [METHAZOLAMIDE] |  | > 10 µM |  | > 30 µM | > 30 µM | > 10 µM |  | > 10 µM | > 10 µM | > 10 µM | > 10 µM | > 10 µM
CC(=O)Oc1ccccc1C(=O)Nc1ncc([N+](=O)[O-])s1 [NITAZOXANIDE] | 8.6 µM | 7.1 µM | > 30 µM | > 10 µM | 25 µM | 15 µM | 10 µM |  | 13 µM | > 30 µM | 14 µM | 5 µM
CN(C)CCC(c1ccccc1)c1ccccn1 (centres undefined) [PHENIRAMINE] |  |  |  | > 30 µM |  |  |  |  |  |  |  | 
CC(C)COc1ccc(CNC(=O)N(Cc2ccc(F)cc2)C2CCN(C)CC2)cc1 [PIMAVANSERIN] |  |  |  | > 30 µM |  |  |  |  |  |  |  | 
CC(C)(C)C(=O)NCCCC(=O)O [PIVAGABINE] |  |  |  | > 30 µM |  |  |  |  |  |  |  | 
CC(C)[N+](C)(CCOC(=O)C1c2ccccc2Oc2ccccc21)C(C)C [PROPANTHELINE] |  |  |  | > 30 µM |  |  |  |  |  |  |  | 
CN(C)C(=O)c1nc(CNC(=O)CN)n(-c2ccc(Cl)cc2C(=O)c2ccccc2Cl)n1 [RILMAZAFONE] |  |  |  | > 30 µM |  |  |  |  |  |  |  | 
NC(=O)NS(=O)(=O)c1ccc(N)cc1 [SULFACARBAMIDE] |  |  |  | > 30 µM |  |  |  |  |  |  |  | 
CCCCCCCCNC(C)C(O)c1ccc(SC(C)C)cc1 (centres undefined) [SULOCTIDIL] |  |  |  | 11 µM |  |  |  |  |  |  |  | 
CCCCNc1ccc(C(=O)OCCN(C)C)cc1 [TETRACAINE] | > 30 µM | > 30 µM | > 30 µM | > 30 µM | 22 µM | > 30 µM | > 10 µM | > 10 µM | > 10 µM | > 30 µM | > 30 µM | > 30 µM
Cn1c(=O)c2[nH]cnc2n(C)c1=O [THEOPHYLLINE] | > 30 µM |  | > 30 µM | > 30 µM | > 30 µM | > 30 µM | > 10 µM | > 10 µM | > 10 µM |  | > 30 µM | > 30 µM
CC1(C)O[C@@H]2[C@@H](CO[C@@]3(COS(N)(=O)=O)OC(C)(C)O[C@@H]23)O1 [TOPIRAMATE] |  | > 30 µM |  | > 30 µM | > 10 µM | > 30 µM | > 10 µM | > 10 µM | > 10 µM |  | > 30 µM | > 30 µM
NCCc1ccc(O)cc1 [TYRAMINE] |  |  |  | > 30 µM |  |  |  |  |  |  |  | 
CCCCCCCCCCCCCCCC(=O)OC/C=C(C)/C=C/C=C(C)/C=C/C1=C(C)CCCC1(C)C [VITAMIN A PALMITATE] |  |  |  | > 30 µM |  |  |  |  |  |  |  | 

Source: ChEMBL document CHEMBL5291721, “A preclinical secondary pharmacology resource illuminates target-adverse drug reaction associations of marketed drugs” (Nat Commun, 2023)
